From patent US11352363B1, “Spiropyrrolidine derived antiviral agents” (Enanta Pharmaceuticals, Inc., priority 2020, dated 2022)
Where two headings read alike, the source gives them in different places.

Biological target: SARS-CoV-2 3CL-protease (Severe acute respiratory syndrome coronavirus 2 (2019-nCoV) (SARS-CoV-2), UniProt P0DTD1)
Test: SARS-CoV-2 3C-like (3CL) protease fluorescence assay (FRET)
Format: biochemical

CC(C)C[C@H](NC(=O)c1cc2c(F)cccc2[nH]1)C(=O)N1C[C@]2(C[C@H]1C#N)C(=O)Nc1c(F)cccc12 [Compound 28]
IC50 (read-out: FRET IC50): < 0.1 µM

COc1cccc2[nH]c(C(=O)N[C@@H](CC(C)C)C(=O)N3C[C@]4(C[C@H]3C(O)S(=O)(=O)O)C(=O)Nc3ccccc34)cc12 (stereo partly shown) [Compound 29]
IC50 (read-out: FRET IC50): < 0.1 µM

CC(C)C[C@@H](C(=O)N1C[C@]2(C[C@H]1C(O)S(=O)(=O)O)C(=O)Nc1ccccc12)N(C)C(=O)c1cc2c(F)cccc2[nH]1 (stereo partly shown) [Compound 30]
IC50 (read-out: FRET IC50): < 0.1 µM

COc1cccc2[nH]c(C(=O)N[C@@H](CC(C)C)C(=O)N3C[C@]4(C[C@H]3C(=O)C(=O)NC3CC3)C(=O)Nc3ccccc34)cc12 [Compound 31]
IC50 (read-out: FRET IC50): 0.1 to 1 µM

COc1cccc2[nH]c(C(=O)N[C@@H](CC(C)C)C(=O)N3C[C@]4(C[C@H]3C(=O)C(=O)NCc3ccccc3)C(=O)Nc3ccccc34)cc12 [Compound 32]
IC50 (read-out: FRET IC50): < 0.1 µM

COc1cccc2[nH]c(C(=O)N[C@@H](CC(C)C)C(=O)N3C[C@]4(C[C@H]3C(=O)C(=O)NC3CCCCC3)C(=O)Nc3ccccc34)cc12 [Compound 33]
IC50 (read-out: FRET IC50): < 0.1 µM

COc1cccc2[nH]c(C(=O)N(C)[C@@H](CC(C)C)C(=O)N3C[C@]4(C[C@H]3C(=O)C(=O)NC3CCCCC3)C(=O)Nc3ccccc34)cc12 [Compound 34]
IC50 (read-out: FRET IC50): > 1 µM

CC(C)C[C@@H](C(=O)N1C[C@]2(C[C@H]1C(=O)C(=O)NC1CCCCC1)C(=O)Nc1ccccc12)N(C)C(=O)c1cc2c(F)cccc2[nH]1 [Compound 35]
IC50 (read-out: FRET IC50): > 1 µM

CC(C)C[C@@H](C(=O)N1C[C@]2(C[C@H]1C(=O)C(=O)NC1CC1)C(=O)Nc1ccccc12)N(C)C(=O)c1cc2c(F)cccc2[nH]1 [Compound 36]
IC50 (read-out: FRET IC50): 0.1 to 1 µM

COc1cccc2[nH]c(C(=O)N[C@@H](CC(C)C)C(=O)N3C[C@]4(C[C@H]3C(=O)O)C(=O)Nc3ccccc34)cc12 [Compound 37]
IC50 (read-out: FRET IC50): 0.1 to 1 µM

COc1cccc2[nH]c(C(=O)N[C@@H](CC(C)C)C(=O)N3C[C@]4(C[C@H]3C(=O)NS(=O)(=O)C3CC3)C(=O)Nc3ccccc34)cc12 [Compound 38]
IC50 (read-out: FRET IC50): > 1 µM

CC(C)C[C@@H](C(=O)N1C[C@]2(C[C@H]1C#N)C(=O)Nc1ccccc12)N(C)C(=O)OCc1ccccc1 [Compound 39]
IC50 (read-out: FRET IC50): < 0.1 µM

CN(C(=O)OCc1ccccc1)[C@@H](CC(C)(C)C)C(=O)N1C[C@]2(C[C@H]1C#N)C(=O)Nc1ccccc12 [Compound 40]
IC50 (read-out: FRET IC50): < 0.1 µM

COc1cccc2[nH]c(C(=O)N(C)[C@@H](CC(C)C)C(=O)N3C[C@]4(C[C@H]3C#N)C(=O)Nc3ccccc34)cc12 [Compound 42]
IC50 (read-out: FRET IC50): < 0.1 µM

CC(C)C[C@@H](C(=O)N1C[C@]2(C[C@H]1C#N)C(=O)Nc1ccccc12)N(C)C(=O)c1sc2cc(F)ccc2c1Cl [Compound 43]
IC50 (read-out: FRET IC50): 0.1 to 1 µM

CC(C)C[C@@H](C(=O)N1C[C@]2(C[C@H]1C#N)C(=O)Nc1ccccc12)N(C)C(=O)c1cc2c(F)cccc2[nH]1 [Compound 44]
IC50 (read-out: FRET IC50): < 0.1 µM

CC(C)C[C@@H](C(=O)N1C[C@]2(C[C@H]1C#N)C(=O)Nc1ccccc12)N(C)C(=O)c1cc2c(C3CC3)cccc2[nH]1 [Compound 45]
IC50 (read-out: FRET IC50): < 0.1 µM

CC(C)C[C@@H](C(=O)N1C[C@]2(C[C@H]1C#N)C(=O)Nc1ccccc12)N(C)C(=O)c1cc2c(F)cc(F)cc2[nH]1 [Compound 46]
IC50 (read-out: FRET IC50): < 0.1 µM

Cc1c(C(=O)N(C)[C@@H](CC(C)C)C(=O)N2C[C@]3(C[C@H]2C#N)C(=O)Nc2ccccc23)[nH]c2cc(F)cc(F)c12 [Compound 47]
IC50 (read-out: FRET IC50): < 0.1 µM

CC(C)C[C@@H](C(=O)N1C[C@]2(C[C@H]1C#N)C(=O)Nc1ccccc12)N(C)C(=O)c1[nH]c2ccccc2c1-c1ccccc1 [Compound 48]
IC50 (read-out: FRET IC50): 0.1 to 1 µM

CC(C)C[C@@H](C(=O)N1C[C@]2(C[C@H]1C#N)C(=O)Nc1ccccc12)N(C)C(=O)c1cc2c(OC(F)(F)F)cccc2[nH]1 [Compound 49]
IC50 (read-out: FRET IC50): < 0.1 µM

CC(C)C[C@@H](C(=O)N1C[C@]2(C[C@H]1C#N)C(=O)Nc1ccccc12)N(C)C(=O)c1cc2ccc(F)cc2[nH]1 [Compound 50]
IC50 (read-out: FRET IC50): < 0.1 µM

CC(C)C[C@@H](C(=O)N1C[C@]2(C[C@H]1C#N)C(=O)Nc1ccccc12)N(C)C(=O)c1cc2c(OC(F)F)cccc2[nH]1 [Compound 51]
IC50 (read-out: FRET IC50): < 0.1 µM

COc1cccc2c1cc(C(=O)N(C)[C@@H](CC(C)C)C(=O)N1C[C@]3(C[C@H]1C#N)C(=O)Nc1ccccc13)n2C [Compound 53]
IC50 (read-out: FRET IC50): < 0.1 µM

CC(C)C[C@@H](C(=O)N1C[C@]2(C[C@H]1C#N)C(=O)Nc1ccccc12)N(C)C(=O)c1cc2cc(-c3ccccc3)ccc2[nH]1 [Compound 54]
IC50 (read-out: FRET IC50): < 0.1 µM

CC(C)C[C@@H](C(=O)N1C[C@]2(C[C@H]1C#N)C(=O)Nc1ccccc12)N(C)C(=O)c1cc2ccc(-c3ccccc3)cc2[nH]1 [Compound 55]
IC50 (read-out: FRET IC50): < 0.1 µM

CC(C)C[C@@H](C(=O)N1C[C@]2(C[C@H]1C#N)C(=O)Nc1ccccc12)N(C)C(=O)c1cc2cc(C(C)(C)C)ccc2[nH]1 [Compound 56]
IC50 (read-out: FRET IC50): < 0.1 µM

CC(C)C[C@@H](C(=O)N1C[C@]2(C[C@H]1C#N)C(=O)Nc1ccccc12)N(C)C(=O)c1cc2ccc(C(C)(C)C)cc2[nH]1 [Compound 57]
IC50 (read-out: FRET IC50): < 0.1 µM

COc1ccc(Cl)c(C(=O)N(C)[C@@H](CC(C)C)C(=O)N2C[C@]3(C[C@H]2C#N)C(=O)Nc2ccccc23)c1 [Compound 58]
IC50 (read-out: FRET IC50): < 0.1 µM

CC(C)C[C@@H](C(=O)N1C[C@]2(C[C@H]1C#N)C(=O)Nc1ccccc12)N(C)C(=O)c1ncccc1Cl [Compound 59]
IC50 (read-out: FRET IC50): < 0.1 µM

CC(C)C[C@@H](C(=O)N1C[C@]2(C[C@H]1C#N)C(=O)Nc1ccccc12)N(C)C(=O)c1cncc(C#N)c1 [Compound 60]
IC50 (read-out: FRET IC50): < 0.1 µM

CC(C)C[C@@H](C(=O)N1C[C@]2(C[C@H]1C#N)C(=O)Nc1ccccc12)N(C)C(=O)c1ccc(F)cc1Cl [Compound 61]
IC50 (read-out: FRET IC50): < 0.1 µM

CC(C)C[C@@H](C(=O)N1C[C@]2(C[C@H]1C#N)C(=O)Nc1ccccc12)N(C)C(=O)c1cc(F)ccc1Cl [Compound 62]
IC50 (read-out: FRET IC50): < 0.1 µM

CC(C)C[C@@H](C(=O)N1C[C@]2(C[C@H]1C#N)C(=O)Nc1ccccc12)N(C)C(=O)c1ccc(F)c(Cl)c1 [Compound 63]
IC50 (read-out: FRET IC50): < 0.1 µM

CC(C)C[C@@H](C(=O)N1C[C@]2(C[C@H]1C#N)C(=O)Nc1ccccc12)N(C)C(=O)c1c(Cl)cccc1Cl [Compound 64]
IC50 (read-out: FRET IC50): < 0.1 µM

CC(C)C[C@@H](C(=O)N1C[C@]2(C[C@H]1C#N)C(=O)Nc1ccccc12)N(C)C(=O)c1cc2c(Cl)cccc2[nH]1 [Compound 65]
IC50 (read-out: FRET IC50): < 0.1 µM

CC(C)C[C@@H](C(=O)N1C[C@]2(C[C@H]1C#N)C(=O)Nc1ccccc12)N(C)C(=O)c1cc2c(Br)ccc(Cl)c2[nH]1 [Compound 66]
IC50 (read-out: FRET IC50): < 0.1 µM

CC(C)C[C@@H](C(=O)N1C[C@]2(C[C@H]1C#N)C(=O)Nc1ccccc12)N(C)C(=O)c1cc2c(C#N)cccc2[nH]1 [Compound 67]
IC50 (read-out: FRET IC50): < 0.1 µM

CC(C)C[C@@H](C(=O)N1C[C@]2(C[C@H]1C#N)C(=O)Nc1ccccc12)N(C)C(=O)c1cc2cc(F)cc(F)c2[nH]1 [Compound 68]
IC50: < 0.1 µM

CC(C)C[C@@H](C(=O)N1C[C@]2(C[C@H]1C#N)C(=O)Nc1ccccc12)N(C)C(=O)c1cc2cc(F)c(F)cc2[nH]1 [Compound 69]
IC50 (read-out: FRET IC50): < 0.1 µM

CC(C)C[C@@H](C(=O)N1C[C@]2(C[C@H]1C#N)C(=O)Nc1ccccc12)N(C)C(=O)c1cc2cc(F)ccc2[nH]1 [Compound 70]
IC50 (read-out: FRET IC50): < 0.1 µM

CC(C)C[C@@H](C(=O)N1C[C@]2(C[C@H]1C#N)C(=O)Nc1ccccc12)N(C)C(=O)c1cc2c(F)ccc(F)c2[nH]1 [Compound 71]
IC50 (read-out: FRET IC50): < 0.1 µM

CC(C)C[C@@H](C(=O)N1C[C@]2(C[C@H]1C#N)C(=O)Nc1ccccc12)N(C)C(=O)c1cc2c(Cl)cc(F)cc2[nH]1 [Compound 72]
IC50 (read-out: FRET IC50): < 0.1 µM

CC(C)C[C@@H](C(=O)N1C[C@]2(C[C@H]1C#N)C(=O)Nc1ccccc12)N(C)C(=O)c1cc2c(F)c(Cl)ccc2[nH]1 [Compound 73]
IC50 (read-out: FRET IC50): < 0.1 µM

CC(C)C[C@@H](C(=O)N1C[C@]2(C[C@H]1C#N)C(=O)Nc1ccccc12)N(C)C(=O)c1cc2c(Cl)cc(Cl)cc2[nH]1 [Compound 74]
IC50 (read-out: FRET IC50): < 0.1 µM

CC(C)C[C@@H](C(=O)N1C[C@]2(C[C@H]1C#N)C(=O)Nc1ccccc12)N(C)C(=O)c1n[nH]c2ccccc12 [Compound 75]
IC50 (read-out: FRET IC50): < 0.1 µM

CC(C)C[C@@H](C(=O)N1C[C@]2(C[C@H]1C#N)C(=O)Nc1ccccc12)N(C)C(=O)c1cc2cc(Cl)cc(Cl)c2[nH]1 [Compound 76]
IC50 (read-out: FRET IC50): < 0.1 µM

CC(C)C[C@@H](C(=O)N1C[C@]2(C[C@H]1C#N)C(=O)Nc1ccccc12)N(C)C(=O)c1[nH]c2ccc(F)cc2c1Cl [Compound 77]
IC50 (read-out: FRET IC50): 0.1 to 1 µM

CC(C)C[C@@H](C(=O)N1C[C@]2(C[C@H]1C#N)C(=O)Nc1ccccc12)N(C)C(=O)c1cc2ccccc2[nH]1 [Compound 78]
IC50 (read-out: FRET IC50): < 0.1 µM

CC(C)C[C@@H](C(=O)N1C[C@]2(C[C@H]1C#N)C(=O)Nc1ccccc12)N(C)C(=O)c1cc2c(Br)cccc2[nH]1 [Compound 79]
IC50 (read-out: FRET IC50): < 0.1 µM

CN(C(=O)c1cc2c(F)cccc2[nH]1)[C@@H](Cc1ccccc1)C(=O)N1C[C@]2(C[C@H]1C#N)C(=O)Nc1ccccc12 [Compound 80]
IC50 (read-out: FRET IC50): < 0.1 µM

CN(C(=O)c1cc2c(F)cc(F)cc2[nH]1)[C@@H](Cc1ccccc1)C(=O)N1C[C@]2(C[C@H]1C#N)C(=O)Nc1ccccc12 [Compound 81]
IC50 (read-out: FRET IC50): < 0.1 µM

CC(C)C[C@@H](C(=O)N1C[C@]2(C[C@H]1C#N)C(=O)Nc1ccccc12)N(C)C(=O)c1cc2c(OC3CC3)cccc2[nH]1 [Compound 82]
IC50 (read-out: FRET IC50): < 0.1 µM

CC(C)C[C@@H](C(=O)N1C[C@]2(C[C@H]1C#N)C(=O)Nc1ccccc12)N(C)C(=O)c1cc2c(F)c(F)c(F)cc2[nH]1 [Compound 83]
IC50 (read-out: FRET IC50): < 0.1 µM

CC(C)C[C@@H](C(=O)N1C[C@]2(C[C@H]1C#N)C(=O)Nc1ccccc12)N(C)C(=O)c1cc2cc(C(C)C)ccc2[nH]1 [Compound 84]
IC50 (read-out: FRET IC50): < 0.1 µM

COc1cccc2[nH]c(C(=O)N(C)[C@@H](CC(C)(C)C)C(=O)N3C[C@]4(C[C@H]3C#N)C(=O)Nc3ccccc34)cc12 [Compound 85]
IC50 (read-out: FRET IC50): < 0.1 µM

CN(C(=O)c1cc2c(F)c(F)ccc2[nH]1)[C@@H](CC(C)(C)C)C(=O)N1C[C@]2(C[C@H]1C#N)C(=O)Nc1ccccc12 [Compound 86]
IC50 (read-out: FRET IC50): < 0.1 µM

CN(C(=O)c1cc2c(F)cccc2[nH]1)[C@@H](CC(C)(C)C)C(=O)N1C[C@]2(C[C@H]1C#N)C(=O)Nc1ccccc12 [Compound 87]
IC50 (read-out: FRET IC50): < 0.1 µM
